Experiment [1] concerns the target T1, CYCLIN K (nuclear staining in CAL-120 cells) (Homo sapiens, UniProt O75909).
T1 construct: endogenous in cells; host or cells: CAL-120 human breast cancer cells (DSMZ ACC 459)
Briefly: CYCLIN K nuclear protein level: immunofluorescence high content analysis (CAL-120). It is filed as cell-based. Particulars: 24 h, 50% reduction of nuclear CCNK staining intensity, median, read-out: CYCLIN K degradation IF, DC50-[mol/l] (median). The method, boiled down: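 CAL-120 breast cancer cells treated in dose-response for 24 h at 37 °C, PFA-fixed and immunostained for cyclin K with Hoechst counterstain. Confocal imaging quantified nuclear intensity; DC50 is the concentration giving 50% reduction of nuclear CCNK staining, normalized to DMSO and control.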

For the next experiment, the target named is T2, CDK9/CycT1 (Homo sapiens, UniProt P50750).
T2 construct: Recombinant full-length His-tagged human CDK9 and CycT1; purchased Life Technologies PV4131; host or cells: insect cells
T2 sequence (P50750 whole entry): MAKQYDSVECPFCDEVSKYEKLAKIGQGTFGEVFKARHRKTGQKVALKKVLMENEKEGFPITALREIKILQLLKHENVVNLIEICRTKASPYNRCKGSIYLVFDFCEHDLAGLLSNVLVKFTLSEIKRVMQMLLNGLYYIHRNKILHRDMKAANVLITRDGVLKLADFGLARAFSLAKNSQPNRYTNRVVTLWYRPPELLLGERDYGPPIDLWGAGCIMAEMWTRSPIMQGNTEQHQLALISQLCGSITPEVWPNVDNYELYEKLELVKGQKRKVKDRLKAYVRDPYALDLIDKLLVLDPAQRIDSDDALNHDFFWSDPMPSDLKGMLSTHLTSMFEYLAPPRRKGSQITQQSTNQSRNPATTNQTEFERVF
T2 sequence (O60563 whole entry partner): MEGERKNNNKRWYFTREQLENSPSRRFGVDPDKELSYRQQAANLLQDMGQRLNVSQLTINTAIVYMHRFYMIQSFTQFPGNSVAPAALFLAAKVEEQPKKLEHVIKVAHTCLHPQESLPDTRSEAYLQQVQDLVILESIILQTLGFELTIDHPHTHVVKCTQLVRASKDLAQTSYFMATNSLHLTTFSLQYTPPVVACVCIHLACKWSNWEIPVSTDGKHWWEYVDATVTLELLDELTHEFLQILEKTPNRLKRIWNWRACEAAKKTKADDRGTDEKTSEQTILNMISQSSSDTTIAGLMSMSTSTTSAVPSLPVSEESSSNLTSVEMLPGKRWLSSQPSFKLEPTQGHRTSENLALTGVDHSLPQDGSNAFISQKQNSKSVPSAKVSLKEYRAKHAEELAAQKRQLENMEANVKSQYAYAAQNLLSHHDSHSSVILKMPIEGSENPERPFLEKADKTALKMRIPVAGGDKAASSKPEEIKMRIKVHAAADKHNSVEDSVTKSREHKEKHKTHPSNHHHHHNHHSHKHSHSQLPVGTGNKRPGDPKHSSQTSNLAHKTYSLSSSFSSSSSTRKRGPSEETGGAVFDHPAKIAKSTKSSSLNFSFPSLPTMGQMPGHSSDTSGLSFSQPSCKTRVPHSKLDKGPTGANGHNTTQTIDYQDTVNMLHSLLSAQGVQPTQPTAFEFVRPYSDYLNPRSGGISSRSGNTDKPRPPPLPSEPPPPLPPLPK
Kind of experiment: CDK9/CycT1 high ATP kinase assay (TR-FRET, 2 mM ATP). It is filed as biochemical. The conditions noted are these: 2 mM ATP (high ATP); median; read-out: CDK9/CyclinT1, 2 mM ATP (high ATP), IC50 (median). The method, boiled down:
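Full-length His-tagged human CDK9/CycT1 (insect cell, ~0.5 μg/mL) preincubated 15 min at 22 °C with compound in Tris pH 8.0, MgCl2, DTT buffer before reaction with biotinylated peptide substrate at high ATP (2 mM).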
In general terms: Time-resolved FRET reads energy transfer from a long-lived donor to a nearby acceptor.

The structures appear in SMILES notation. A value given as a limit tells only on which side of the number the result lay.

T1 sequence (O75909 whole entry): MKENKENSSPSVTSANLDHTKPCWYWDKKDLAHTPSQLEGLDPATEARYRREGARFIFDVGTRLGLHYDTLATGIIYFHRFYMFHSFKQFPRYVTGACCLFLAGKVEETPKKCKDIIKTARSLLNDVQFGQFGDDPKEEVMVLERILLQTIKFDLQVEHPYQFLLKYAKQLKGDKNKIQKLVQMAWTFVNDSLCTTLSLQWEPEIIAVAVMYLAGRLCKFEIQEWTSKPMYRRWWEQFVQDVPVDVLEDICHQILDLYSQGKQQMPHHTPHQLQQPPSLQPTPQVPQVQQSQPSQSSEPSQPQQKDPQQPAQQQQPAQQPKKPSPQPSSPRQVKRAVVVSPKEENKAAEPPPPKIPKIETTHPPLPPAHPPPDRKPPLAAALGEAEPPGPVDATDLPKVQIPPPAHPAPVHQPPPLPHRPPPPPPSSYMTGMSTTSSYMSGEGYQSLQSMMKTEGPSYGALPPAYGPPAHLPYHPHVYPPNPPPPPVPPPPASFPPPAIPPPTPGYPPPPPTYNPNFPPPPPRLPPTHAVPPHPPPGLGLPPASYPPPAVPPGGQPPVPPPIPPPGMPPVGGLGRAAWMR
T1 sequence (Q9NYV4 whole entry partner): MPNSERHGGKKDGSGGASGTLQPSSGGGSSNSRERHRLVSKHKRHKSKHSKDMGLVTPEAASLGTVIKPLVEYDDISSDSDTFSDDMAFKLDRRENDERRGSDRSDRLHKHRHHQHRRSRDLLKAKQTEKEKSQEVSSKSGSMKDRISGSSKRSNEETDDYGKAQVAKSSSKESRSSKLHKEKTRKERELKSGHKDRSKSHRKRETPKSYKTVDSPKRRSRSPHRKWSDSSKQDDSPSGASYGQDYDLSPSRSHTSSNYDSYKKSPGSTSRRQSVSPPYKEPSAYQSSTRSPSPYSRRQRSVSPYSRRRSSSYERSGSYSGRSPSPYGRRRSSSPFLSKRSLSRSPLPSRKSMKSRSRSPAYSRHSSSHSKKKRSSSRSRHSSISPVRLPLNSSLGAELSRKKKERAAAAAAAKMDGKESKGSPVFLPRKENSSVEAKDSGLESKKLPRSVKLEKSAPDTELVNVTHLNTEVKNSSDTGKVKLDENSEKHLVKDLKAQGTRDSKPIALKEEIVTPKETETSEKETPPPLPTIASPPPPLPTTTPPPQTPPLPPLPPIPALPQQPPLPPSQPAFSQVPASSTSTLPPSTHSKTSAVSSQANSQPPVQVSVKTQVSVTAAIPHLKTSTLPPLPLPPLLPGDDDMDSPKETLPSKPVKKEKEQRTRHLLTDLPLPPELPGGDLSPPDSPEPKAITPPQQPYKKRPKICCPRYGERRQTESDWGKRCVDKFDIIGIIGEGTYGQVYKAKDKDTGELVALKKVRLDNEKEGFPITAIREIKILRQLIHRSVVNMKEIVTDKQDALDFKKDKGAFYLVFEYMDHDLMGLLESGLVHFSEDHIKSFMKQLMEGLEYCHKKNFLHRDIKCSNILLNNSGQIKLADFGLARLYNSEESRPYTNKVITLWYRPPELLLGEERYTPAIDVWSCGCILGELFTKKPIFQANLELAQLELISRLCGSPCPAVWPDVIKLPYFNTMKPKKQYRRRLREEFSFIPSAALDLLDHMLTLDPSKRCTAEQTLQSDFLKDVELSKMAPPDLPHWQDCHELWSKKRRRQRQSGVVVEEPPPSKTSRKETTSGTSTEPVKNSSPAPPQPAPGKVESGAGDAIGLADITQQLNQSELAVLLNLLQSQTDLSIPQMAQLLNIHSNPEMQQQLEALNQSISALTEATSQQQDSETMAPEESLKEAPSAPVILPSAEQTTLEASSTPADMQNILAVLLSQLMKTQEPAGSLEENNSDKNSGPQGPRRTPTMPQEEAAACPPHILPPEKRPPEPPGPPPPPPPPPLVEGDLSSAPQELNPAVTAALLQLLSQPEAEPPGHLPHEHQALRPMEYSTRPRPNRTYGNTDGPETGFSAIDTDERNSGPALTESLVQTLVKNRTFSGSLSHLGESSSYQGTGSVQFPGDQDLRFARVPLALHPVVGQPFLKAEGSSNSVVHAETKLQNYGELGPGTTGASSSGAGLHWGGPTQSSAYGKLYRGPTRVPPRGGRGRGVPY

`Fc1cccc2[nH]c(CNc3nc(N4C[C@H]5CC[C@@H](C4)N5)nc4c(C5CC5)cnn34)nc12` [Example 296, 8-cyclopropyl-2-[(1R,5S)-3,8-diazabicyclo[3.2.1]octan-3-yl]-N-[(4-fluoro-1H-benzimidazol-2-yl)methyl]pyrazolo[1,5-a][1,3,5]triazin-4-amine]: the DC50 in experiment [1] came out at 1.15 nM. Further, the IC50 on CDK9/CycT1 was above 20000 nM.

Take `NC1CCN(c2nc(NCc3nc4ccccc4[nH]3)n3ncc(Br)c3n2)CC1` [Example 256, 2-(4-aminopiperidin-1-yl)-N-[(1H-benzimidazol-2-yl)methyl]-8-bromopyrazolo[1,5-a][1,3,5]triazin-4-amine]: in experiment [1], the DC50 worked out at 0.326 nM. On CDK9/CycT1, the IC50 was above 20000 nM.

Turning to `Fc1ccc2[nH]c(CNc3nc(N4CCOCC4)nc4c(CC(F)(F)F)cnn34)nc2c1` [Example 308, N-[(5-fluoro-1H-benzimidazol-2-yl)methyl]-2-(morpholin-4-yl)-8-(2,2,2-trifluoroethyl)pyrazolo[1,5-a][1,3,5]triazin-4-amine], in experiment [1], the DC50 turned out to be 1.02 nM. The IC50 at CDK9/CycT1 was above 20000 nM.

As to `CN(CC(C)(C)O)c1nc(NCc2nc3c(F)cccc3[nH]2)n2ncc(C3CC3)c2n1` [Example 295, 1-[(8-cyclopropyl-4-{[(4-fluoro-1H-benzimidazol-2-yl)methyl]amino}pyrazolo[1,5-a][1,3,5]triazin-2-yl)(methyl)amino]-2-methylpropan-2-ol], the DC50 in experiment [1] amounted to 2.55 nM. The IC50 at CDK9/CycT1 was determined as 9270 nM.

Consider `CN(CC(C)(C)O)c1nc(NCc2nc3cc(F)c(Cl)cc3[nH]2)n2ncc(C3CC3)c2n1` [Example 317, 1-[(4-{[(6-chloro-5-fluoro-1H-benzimidazol-2-yl)methyl]amino}-8-cyclopropylpyrazolo[1,5-a][1,3,5]triazin-2-yl)(methyl)amino]-2-methylpropan-2-ol], for which, in experiment [1], the DC50 was determined as 0.347 nM. In addition, the IC50 on CDK9/CycT1 is above 20000 nM.

On to `CC(C)CNc1nc(NCc2nc3ccccc3[nH]2)n2ncc(Br)c2n1` [Example 285, N^4-[(1H-benzimidazol-2-yl)methyl]-8-bromo-N^2-(2-methylpropyl)pyrazolo[1,5-a][1,3,5]triazine-2,4-diamine], for which the DC50 in experiment [1] amounted to 3.46 nM. Further, the IC50 at CDK9/CycT1 was above 20000 nM.

For the compound `C[C@@H]1CN(c2nc(NCc3nc4ccccc4[nH]3)n3ncc(C4CC4)c3n2)C[C@H](C)N1` [Example 248, N-[(1H-benzimidazol-2-yl)methyl]-8-cyclopropyl-2-[(3R,5S)-3,5-dimethylpiperazin-1-yl]pyrazolo[1,5-a][1,3,5]triazin-4-amine], the DC50 in experiment [1] was found to be 0.648 nM. Further, the IC50 on CDK9/CycT1 is above 20000 nM.

Take `Brc1cnn2c(NCc3nc4ccccc4[nH]3)nc(N3CCC4(CCN4)CC3)nc12` [Example 291, N-[(1H-benzimidazol-2-yl)methyl]-8-bromo-2-(1,7-diazaspiro[3.5]nonan-7-yl)pyrazolo[1,5-a][1,3,5]triazin-4-amine]: the DC50 in experiment [1] was 10 nM. Further, on CDK9/CycT1, the IC50 was above 20000 nM.

For `c1ccc2[nH]c(CNc3nc(N4C[C@@H]5C[C@H]4CO5)nc4c(C5CC5)cnn34)nc2c1` [Example 254, N-[(1H-benzimidazol-2-yl)methyl]-8-cyclopropyl-2-[(1S,4S)-2-oxa-5-azabicyclo[2.2.1]heptan-5-yl]pyrazolo[1,5-a][1,3,5]triazin-4-amine], the DC50 in experiment [1] was 4.17 nM. Also, the IC50 at CDK9/CycT1 is above 20000 nM.

Turning to `CN1CCN(c2nc(NCc3nc4cc(F)c(Cl)cc4[nH]3)n3ncc(C4CC4)c3n2)CC1` [Example 309, N-[(6-chloro-5-fluoro-1H-benzimidazol-2-yl)methyl]-8-cyclopropyl-2-(4-methylpiperazin-1-yl)pyrazolo[1,5-a][1,3,5]triazin-4-amine], the DC50 in experiment [1] turned out to be 0.914 nM. In addition, on CDK9/CycT1, the IC50 was above 20000 nM.

As to `Cc1cc2nc(CNc3nc(N4CCN(C)CC4)nc4c(C5CC5)cnn34)[nH]c2cc1C` [Example 312, 8-cyclopropyl-N-[(5,6-dimethyl-1H-benzimidazol-2-yl)methyl]-2-(4-methylpiperazin-1-yl)pyrazolo[1,5-a][1,3,5]triazin-4-amine], the DC50 in experiment [1] came to 0.518 nM. Further, at CDK9/CycT1, the IC50 is above 20000 nM.

(Values after US20230117034A1, “PYRAZOLOTRIAZINES” (Bayer Aktiengesellschaft, priority 2019, published 2023).)
